According to the NIST ThermoML archive (doi:10.1016/j.tca.2019.05.011):

Key:
[1] = Liquid, Closed cell (Static) method
[2] = molar heat capacity at constant pressure; details: 101.33 kPa, Liquid, Vacuum adiabatic calorimetry

CC(C)O [propan-2-ol]
Details | molar heat capacity at constant pressure [J/K/mol] | vapor or sublimation pressure [kPa]
[1], 297.8 K | – | 5.781
[1], 303.1 K | – | 7.995
[1], 315.8 K | – | 16.22
[1], 332.1 K | – | 36.06
[1], 344.7 K | – | 63.92
[2], 190 K | 111.12 | –
[2], 200 K | 112.89 | –
[2], 210 K | 115.01 | –
[2], 220 K | 117.52 | –
[2], 230 K | 120.46 | –
[2], 240 K | 123.87 | –
[2], 250 K | 127.81 | –
[2], 260 K | 132.31 | –
[2], 270 K | 137.41 | –
[2], 280 K | 143.19 | –
[2], 290 K | 149.68 | –
[2], 300 K | 156.94 | –
[2], 310 K | 165.02 | –
[2], 320 K | 173.99 | –
[2], 330 K | 183.9 | –
